| Structure (SMILES) | melting point |
| --- | --- |
| O=C(Nc1nc(-c2ccco2)c(-c2ccncc2)s1)c1ccnc(CN2CCC(O)CC2)c1 [Compound 111, N-[4-(2-Furyl)-5-(4-pyridyl)thiazol-2-yl]-2-(4-hydroxypiperidinomethyl)pyridine-4-carboxamide] | 203 to 208 °C |
| Cc1cnc(C(=O)c2sc(NC(=O)c3ccncc3)nc2-c2ccco2)s1 [Compound 349, N-[4-(2-Furyl)-5-(5-methylthiazol-2-ylcarbonyl)thiazol-2-yl]pyridine-4-carboxamide] | 275 to 277 °C (dec.) |
| CCn1ccc(-c2sc(NC(=O)c3ccncc3)nc2-c2ccco2)cc1=O [Compound 124, N-[5-(1-Ethyl-2-oxo-1,2-dihydropyridin-4-yl)-4-(2-furyl)thiazol-2-yl]pyridine-4-carboxamide] | 245 to 248 °C |
| O=C(Nc1nc(-c2ccco2)c(-c2ccncc2)s1)c1ccnc(Cn2ccnc2)c1 [Compound 108, N-[4-(2-Furyl)-5-(4-pyridyl)thiazol-2-yl]-2-(imidazol-1-ylmethyl)pyridine-4-carboxamide] | 239 to 250 °C |
| O=C(c1ccccn1)c1sc(NC(=O)C2CCOCC2)nc1-c1ccco1 [Compound 194, N-[4-(2-Furyl)-5-(pyridin-2-ylcarbonyl)thiazol-2-yl]tetrahydropyran-4-carboxamide] | 234 to 235 °C |
| O=C(Nc1nc(-c2ccco2)c(C(=O)c2ccccn2)s1)c1ccccc1 [Compound 199, N-[4-(2-Furyl)-5-(pyridin-2-ylcarbonyl)thiazol-2-yl]benzamide] | 165 to 171 °C |
| O=C(Nc1nc(-c2ccco2)c(C(=O)c2ccccn2)s1)OC(CF)CF [Compound 255, 2-Fluoro-1-(fluoromethyl)ethyl N-[4-(2-furyl)-5-(pyridin-2-ylcarbonyl)thiazol-2-yl]carbamate] | 158 to 159 °C |
| Cc1cncc(C(=O)Nc2nc(-c3ccco3)c(C(=O)C3CCOCC3)s2)c1 [Compound 506, N-[4-(2-Furyl)-5-(tetrahydropyran-4-ylcarbonyl)thiazol-2-yl]-5-methylpyridine-3-carboxamide] | 239 to 243 °C |
| CCn1cc(C(=O)Nc2nc(-c3ccco3)c(C(=O)C3CCOCC3)s2)cn1 [Compound 520, 1-Ethyl-N-[4-(2-furyl)-5-(tetrahydropyran-4-ylcarbonyl)thiazol-2-yl]pyrazole-4-carboxamide] | 170 to 174 °C |
| O=C(Nc1nc(-c2ccco2)c(C(=O)c2ccccn2)s1)c1ccc([N+](=O)[O-])o1 [Compound 236, N-[4-(2-Furyl)-5-(pyridin-2-ylcarbonyl)thiazol-2-yl]-5-nitrofuran-2-carboxamide] | 278 to 283 °C (dec.) |
| Cc1ccccc1C(=O)Nc1nc(-c2ccco2)c(C(=O)C2CCOCC2)s1 [Compound 458, N-[4-(2-Furyl)-5-(tetrahydropyran-4-ylcarbonyl)thiazol-2-yl]-2-methylbenzamide] | 204 to 206 °C |
| Cc1cccc(C(=O)Nc2nc(-c3ccco3)c(C(=O)C3CCOCC3)s2)c1 [Compound 459, N-[4-(2-Furyl)-5-(tetrahydropyran-4-ylcarbonyl)thiazol-2-yl]-3-methylbenzamide] | 197 to 201 °C |
| COc1cc(OC)cc(C(=O)Nc2nc(-c3ccco3)c(C(=O)C3CCOCC3)s2)c1 [Compound 488, N-[4-(2-Furyl)-5-(tetrahydropyran-4-ylcarbonyl)thiazol-2-yl]-3,5-dimethoxybenzamide] | 278 to 280 °C |
| Cc1cccc(C(=O)c2sc(NC(=O)c3ccncc3)nc2-c2ccco2)n1 [Compound 284, N-[4-(2-Furyl)-5-(6-methylpyridin-2-ylcarbonyl)thiazol-2-yl]pyridine-4-carboxamide] | 238 to 241 °C |
| COCC#CC(=O)c1sc(NC(=O)c2ccncc2)nc1-c1ccco1 [Compound 413, N-[4-(2-Furyl)-5-(3-methoxypropa-1-ynylcarbonyl)thiazol-2-yl]pyridine-4-carboxamide] | 198 to 200 °C |
| COc1cc(C(=O)Nc2nc(-c3ccco3)c(C(=O)c3ccccn3)s2)cc(OC)c1OC [Compound 204, N-[4-(2-Furyl)-5-(pyridin-2-ylcarbonyl)thiazol-2-yl]-3,4,5-trimethoxybenzamide] | 172 to 180 °C (dec.) |
| O=C(Nc1nc(-c2ccco2)c(C(=O)C2CCOCC2)s1)c1ccccc1OC(F)(F)F [Compound 475, N-[4-(2-Furyl)-5-(tetrahydropyran-4-ylcarbonyl)thiazol-2-yl]-2-(trifluoromethoxy)benzamide] | 131 to 134 °C |
| COC1CCN(CC(=O)Nc2nc(-c3ccco3)c(C(=O)c3ccccn3)s2)CC1.Cl | 220 to 232 °C (dec.) |
| O=C(Nc1nc(-c2ccco2)c(C(=O)c2cccnc2)s1)c1ccncc1 [Compound 304, N-[4-(2-Furyl)-5-(pyridin-3-ylcarbonyl)thiazol-2-yl]pyridine-4-carboxamide] | 245 to 248 °C |
| CC(O)c1cc2cc(C(=O)Nc3nc(-c4ccco4)c(C(=O)c4ccccn4)s3)ccc2o1 (stereo not shown) [Compound 246, N-[4-(2-Furyl)-5-(pyridin-2-ylcarbonyl)thiazol-2-yl]-2-(1-hydroxyethyl)-1-benzofuran-5-carboxamide] | 246 to 249 °C |

| Structure (SMILES) | melting point |
| --- | --- |
| COc1cccc(C(=O)c2sc(NC(=O)c3ccncc3)nc2-c2ccco2)n1 [Compound 283, N-[4-(2-Furyl)-5-(6-methoxypyridin-2-ylcarbonyl)thiazol-2-yl]pyridine-4-carboxamide] | 247 to 250 °C |
| O=C(CNC12CC3CC(CC(C3)C1)C2)Nc1nc(-c2ccco2)c(C(=O)C2CCOCC2)s1 [Compound 577, N-[4-(2-Furyl)-5-(tetrahydropyran-4-ylcarbonyl)thiazol-2-yl]-2-(adamantan-1-ylamino)acetamide] | 168 to 170 °C |
| CC(C)C(=O)c1sc(N)nc1-c1ccco1 [Compound 392, 2-Amino-4-(2-furyl)thiazol-5-yl isopropyl ketone] | 195 to 199 °C |
| COC1(CN2CCN(CC(=O)Nc3nc(-c4ccco4)c(C(=O)C4CCOCC4)s3)CC2)CC1 [Compound 567, N-[4-(2-Furyl)-5-(tetrahydropyran-4-ylcarbonyl)thiazol-2-yl]-2-{4-[(1-methoxycyclopropyl)methyl]piperazin-1-yl}acetamide] | 155 to 157 °C |
| COc1ccccc1C(=O)Nc1nc(-c2ccco2)c(C(=O)C2CC2)s1 [Compound 420, N-[5-(Cyclopropylcarbonyl)-4-(2-furyl)thiazol-2-yl]-2-methoxybenzamide] | 150 to 154 °C |
| O=C(c1ccccn1)c1sc(NC(=O)C2CCN(Cc3cccnc3)CC2)nc1-c1ccco1 [Compound 197, N-[4-(2-Furyl)-5-(pyridin-2-ylcarbonyl)thiazol-2-yl]-1-(pyridin-3-ylmethyl)piperidine-4-carboxamide] | 208 to 209 °C |
| Cc1ccc(C(=O)c2sc(NC(=O)c3ccoc3)nc2-c2ccco2)cn1 [Compound 316, N-[4-(2-Furyl)-5-(2-methylpyridin-5-ylcarbonyl)thiazol-2-yl]furan-3-carboxamide] | 229 to 231 °C |
| O=C(Nc1nc(-c2ccco2)c(-c2ccncc2)s1)c1ccc(F)cc1 [Compound 102, 4-Fluoro-N-[4-(2-furyl)-5-(4-pyridyl)thiazol-2-yl]benzamide] | 270 to 300 °C (dec.) |
| O=C(Nc1nc(-c2ccco2)c(C(=O)C2CCSCC2)s1)c1ccncc1 [Compound 589, N-[4-(2-Furyl)-5-(tetrahydrothiopyran-4-ylcarbonyl)thiazol-2-yl]pyridine-4-carboxamide] | 203 to 210 °C |
| O=C(Nc1nc(-c2ccco2)c(C(=O)C2CCOCC2)s1)c1ccc(Cl)cc1 [Compound 471, 4-Chloro-N-[4-(2-furyl)-5-(tetrahydropyran-4-ylcarbonyl)thiazol-2-yl]benzamide] | 204 to 206 °C |
| COCCCNC(=O)Nc1nc(-c2ccco2)c(C(=O)c2ccccn2)s1 [Compound 261, N-[4-(2-Furyl)-5-(pyridin-2-ylcarbonyl)thiazol-2-yl]-N′-(3-methoxypropyl)urea] | 169 to 170 °C |
| O=C(Nc1nc(-c2ccco2)c(C(=O)C2CCOCC2)s1)c1ccc2c(c1)OCO2 [Compound 496, N-[4-(2-Furyl)-5-(tetrahydropyran-4-ylcarbonyl)thiazol-2-yl]-1,3-benzodioxole-5-carboxamide] | 194 to 196 °C |
| Cc1ccoc1C(=O)Nc1nc(-c2ccco2)c(C(=O)c2ccccn2)s1 [Compound 237, N-[4-(2-Furyl)-5-(pyridin-2-ylcarbonyl)thiazol-2-yl]-3-methylfuran-2-carboxamide] | 174 to 176 °C |
| Nc1nc(-c2ccco2)c(C(=O)C2CCC2)s1 [Compound 423, 2-Amino-4-(2-furyl)thiazol-5-yl cyclobutyl ketone] | 125 to 160 °C (dec.) |
| O=C(CN1CCC(O)CC1)Nc1nc(-c2ccco2)c(C(=O)C2CCOCC2)s1 [Compound 543, N-[4-(2-Furyl)-5-(tetrahydropyran-4-ylcarbonyl)thiazol-2-yl]-2-(4-hydroxypiperidino)acetamide] | 178 to 180 °C |
| Cc1nc(C(=O)c2sc(NC(=O)c3ccncc3)nc2-c2ccco2)sc1C [Compound 351, N-[5-(4,5-Dimethylthiazol-2-ylcarbonyl)-4-(2-furyl)thiazol-2-yl]pyridine-4-carboxamide] | 270 to 272 °C (dec.) |
| O=C(Nc1nc(-c2ccco2)c(C(=O)C2CCOCC2)s1)c1ccc(F)c(F)c1 [Compound 493, 3,4-Difluoro-N-[4-(2-furyl)-5-(tetrahydropyran-4-ylcarbonyl)thiazol-2-yl]benzamide] | 208 to 210 °C |
| COC1CCC(C(=O)c2sc(NC(=O)c3ccc(C#N)cc3)nc2-c2ccco2)CC1 (stereo not shown) [Compound 443, 4-Cyano-N-[4-(2-furyl)-5-(4-methoxycyclohexylcarbonyl)thiazol-2-yl]benzamide] | 105 to 109 °C |
| O=C(Nc1nc(-c2ccco2)c(C(=O)C2CCOCC2)s1)c1ccccc1Cl [Compound 469, 2-Chloro-N-[4-(2-furyl)-5-(tetrahydropyran-4-ylcarbonyl)thiazol-2-yl]benzamide] | 160 to 162 °C |
| CCCC(=O)Nc1nc(-c2ccco2)c(C(=O)c2ccccn2)s1 [Compound 189, N-[4-(2-Furyl)-5-(pyridin-2-ylcarbonyl)thiazol-2-yl]butanamide] | 148 to 149 °C |
